Laboratory results as given in patent publication US9637787B2, “Culture based screening assay and methods of use thereof to identify agents which modulate tumor development, invasion and differentiation” (The Trustees of the University of Pennsylvania, priority 2007, dated 2017).

Columns and labels:
periostin = assay: Western blot of periostin expression in cell lysates; assay type: cell-based, human; details: EPC2-hTERT-EGFR-p53^R175H cells, 24 h treatment; EGF 10 ng/μl, AG1478 1 μM, 5-iminodaunorubicin 3 μM
Experimental: FIG. 24: Periostin expression is dependent upon EGFR signaling and mutant p53 activation (A) Western blot analysis of periostin (90 kDa) in EPC2-hTERT-EGFR-p53^R175H, EPC2-hTERT-puro-neo, EPC2-hTERT-EGFR-neo and EPC2-hTERT-neo-p53^R175H cells. (B) Western blot analysis of periostin expression in EPC2-hTERT-EGFR-p53^R175H cell lysates after 24 h treatment with EGF (10 ng/μl), EGFR inhibitor AG1478 (1 μM) and 5-iminodaunorubicin (3 μM). Immunoblotting for total EGFR and phosphorylated EGFR to confirm inhibition of EGFR as well as p21 to indicate restoration of wildtype p53 signaling. β-actin was used as a loading control. Densitometry ratios of periostin/β-actin were calculated and recorded.
(§1) For Western blot analysis, cells were lysed in lysis buffer (10 mM Tris-HCl, pH 7.4, 150 mM NaCl, 1% Nonidet P-40, 0.1% sodium deoxycholate, 0.1% SDS, 1 mM EDTA, 2 mM sodium orthovanadate and a protease inhibitor tablet, Roche Molecular Biochemicals, Indianapolis, Ind.). Protein concentration was determined by the Bio-Rad protein assay (Bio-Rad, Hercules, Calif.). 15 μg of protein were run on a 4-12% SDS-PAGE gel (Invitrogen™) and transferred to a polyvinylidene difluoride membrane (Immobilon-P®, Millipore, Bedford, Mass.). Membranes were blocked in 5% nonfat milk (Bio-Rad) in TBS-T (10 mM Tris, 150 mM NaCl, pH 8.0 and 0.1% Tween® 20) for 1 h at room temperature. Membranes were then probed with primary antibody diluted in 5% milk in TBS-T overnight at 4° C., washed with TBS-T and incubated with anti-mouse or anti-rabbit horseradish peroxidase-conjugated secondary antibodies (GE Biotech, 1:3000 in TBS-T) for 1 h at room temperature and washed in TBS-T. The signal was visualized using an enhanced chemiluminescence solution (ECL Plus, Amersham™ Pharmacia Biotech) and exposed to Blue Lite Autorad film (ISC-BioExpress, Kaysville, Utah). To confirm secreted periostin expression, conditioned media was collected and protein concentration was determined by Bio-Rad protein assay (Bio-Rad) and Western blot analysis was performed as described above.

[1] = tested on: EPC-hTERT-EGFR-p53^R175H cells; assay: matrix invasion in 3D organotypic culture above FEF3 fetal esophageal fibroblast matrices; assay type: cell-based, human; details: 100 nM
Experimental: (§2) (A) Fluorescence measurements representing invading cells on the bottom filters of a Matrigel®-coated Boyden chamber where HGF was added as the chemoattractant of EPC-hTERT-EGFR-p53^R175H cells seeded atop the filter. (B) Level of secreted HGF in conditioned media from FEF3 fibroblasts±HGF siRNA set up in organotypic culture and detected by ELISA. (C) H&E sections of organotypic cultures of FEF3 fibroblasts±HGF siRNA seeded into the matrix with EPC-hTERT-EGFR-p53^R175H grown above (scale bar=100 μm). (D) Quantification of invasion in entire organotypic culture imaged in (C). Error bars represent ±SEM and * indicates p values ≦0.05 when compared to the control.
(A) Western blot of EPC-hTERT-EGFR-p53^R175HshMet or EPC-hTERT-EGFR-p53^R175H shScramble cells (two independent lines of each genotype) to determine extent of Met knockdown of total protein and activation state. (B) H&E sections of organotypic culture of EPC-hTERT-EGFR-p53^R175H-shMet or EPC-hTERT-EGFRp53^R175H-shScramble cells seeded above matrices containing FEF3 fetal esophageal fibroblasts. (C) H&E sections of organotypic cultures of EPC-hTERT-EGFR-p53^R175H cells seeded above FEF3 matrices treated with DMSO vehicle (days 7-15) or 100 nM PHA665752 (days 7-15 or day 11-15) as indicated. […]

Met = Met phosphorylation in EPC-hTERT-EGFR-p53^R175H cells; assay type: cell-based, human; details: data not shown
Experimental: as §1

MMP-1 = target: T1, MMP-1 (Homo sapiens, UniProt P03956); details: cited from earlier work
T1 sequence (P03956 100-469): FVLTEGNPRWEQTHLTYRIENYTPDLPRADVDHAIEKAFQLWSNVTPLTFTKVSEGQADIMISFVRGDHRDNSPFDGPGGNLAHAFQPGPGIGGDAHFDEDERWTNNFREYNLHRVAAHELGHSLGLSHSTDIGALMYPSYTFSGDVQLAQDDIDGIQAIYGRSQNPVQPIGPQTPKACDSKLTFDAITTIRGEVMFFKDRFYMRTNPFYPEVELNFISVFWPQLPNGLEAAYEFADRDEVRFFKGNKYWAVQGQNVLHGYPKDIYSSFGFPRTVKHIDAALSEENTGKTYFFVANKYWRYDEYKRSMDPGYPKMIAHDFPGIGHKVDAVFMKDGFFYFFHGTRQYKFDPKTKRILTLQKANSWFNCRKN

[2] = tested on: EPC-hTERT-EGFR-p53^R175H cells; assay: Matrigel-coated Boyden chamber invasion assay with chemoattractant; assay type: cell-based, human; details: HGF added as chemoattractant
Experimental: as §2
For migration assays, Boyden chambers (8 μm pore size, FluoroBlok-HTS inserts, BD Biosciences) were used. For invasion assays, insert-plates (8 μm pore size, FluoroBlock, 24 well insert) coated with BD Matrigel® matrix were used. Inserts were placed in a 24-well plate containing Full KSFM medium with serum to stimulate cell migration and invasion. 5×10^4 cells in serum-free medium were placed in each insert. Twenty-four hours later, migrating or invading cells were labeled with 4 μg/ml Calcein AM dye (Invitrogen™) in HANKS buffer for 1 hour. The labeled cells were then read on a Synergy HT multi-detection microplate reader (BIOTEK®, Woburn, Mass.) at 485 nm excitation and 528 nm detection. […]

COc1cccc2c1C(=N)c1c(O)c3c(c(O)c1C2=O)C[C@@](O)(C(C)=O)C[C@@H]3O[C@H]1C[C@H](N)[C@H](O)[C@H](C)O1 [5-iminodaunorubicin]
periostin protein expression (periostin): decreased

EGF: epidermal growth factor used to stimulate EGFR
periostin protein expression (periostin): increased periostin protein expression

Cc1[nH]c(/C=C2\C(=O)Nc3ccc(S(=O)(=O)Cc4c(Cl)cccc4Cl)cc32)c(C)c1C(=O)N1CCC[C@@H]1CN1CCCC1 [PHA665752]
invasion of EPC-hTERT-EGFR-p53^R175H cells in organotypic culture ([1]; treated for seven days following epithelial cell seeding (days 7-15)): inhibited invasion
invasion of EPC-hTERT-EGFR-p53^R175H cells in organotypic culture ([1]; treated for the final four days when invasion occurs (day 11-15)): inhibited invasion

COc1cc2ncnc(Nc3cccc(Cl)c3)c2cc1OC [AG1478]
periostin protein expression (periostin): decreased
Met phosphorylation (Met): nor was Met phosphorylation inhibited

CCN(CC)Cc1cc(C)c(N(Cc2ccccc2)S(=O)(=O)c2ccc(OC)cc2)c(C(=O)NO)c1 [MMP-9 inhibitor]
IC50 (MMP-1): 1050 nM

HGF: Recombinant human HGF purchased from R&D Systems
levels of invading cells [2]: significantly increased levels of invading
